Measured values reported in the OPERA property sets (Mansouri et al. 2018).

Row | Structure (SMILES) | logP
1 | CN(C)C(=O)OCCc1c[nH]c2ccccc12 | 2.54
2 | CC(C)OC(=O)N(C)C | 1.38
3 | CCC(CC)COC(=O)N(CC)CC | 3.6
4 | CCN(CC)C(=O)OCC(C)C | 2.82
5 | NC(=O)OCCc1ccccc1 | 1.5
6 | CNC(=O)OCc1ccccc1 | 1.68
7 | CN(C)C(=O)OCCCc1cccnc1 | 1.44
8 | CCC(CC)COC(=O)N(C)C | 2.87
9 | NC(=O)OCCc1c[nH]c2ccccc12 | 1.69
10 | NC(=O)OCCCc1cccnc1 | 0.46
11 | NC(=O)OCCCc1ccccc1 | 1.96

Now from value to molecule:

Row | logP | Structure (SMILES)
12 | 3.3 | CCN(CC)C(=O)OCCc1c[nH]c2ccccc12
13 | 2.4 | CN(C)C(=O)OCCc1ccccc1
14 | 3.2 | CCN(CC)C(=O)OCCc1ccccc1
15 | 2.36 | CCN(CC)C(=O)OCCCc1ccccn1
16 | 2.6 | CC(Cc1ccccc1)OC(=O)N(C)C (stereo not drawn)
17 | 2.93 | CN(C)C(=O)OCCCc1ccccc1
18 | 2.93 | CCN(CC)C(=O)OCc1ccccc1
